± gives the expanded uncertainty stated by the source.
Experiments:
[1] = 101.3 kPa, Liquid
[2] = xn = mol fraction of the nth substance listed; settings: 101 kPa, Liquid

C=CCCCCCC [oct-1-ene]
[1]
Settings	viscosity [mPa·s]
283.1 K	0.56 ± 0.03
298.15 K	0.47 ± 0.03
323.15 K	0.37 ± 0.03
348.15 K	0.3 ± 0.03

CCCCCC[n+]1ccn(C)c1.O=S(=O)([N-]S(=O)(=O)C(F)(F)F)C(F)(F)F
[1]
Settings	viscosity [mPa·s]
283.1 K	136 ± 11
298.15 K	70.1 ± 2.5
323.15 K	25.8 ± 0.8
348.15 K	13.5 ± 0.5

CCCCCC[n+]1ccn(C)c1.O=S(=O)([N-]S(=O)(=O)C(F)(F)F)C(F)(F)F + C=CCCCCCC
[2], x2 = 0
Settings	viscosity [mPa·s]
283.1 K	136 ± 11
298.15 K	70.1 ± 2.5
323.15 K	25.8 ± 0.8
348.15 K	13.5 ± 0.5

C=CCCCCCC [oct-1-ene] + CCCCCC[n+]1ccn(C)c1.O=S(=O)([N-]S(=O)(=O)C(F)(F)F)C(F)(F)F
viscosity [mPa·s], [2]
Settings	283.1 K	298.15 K	323.15 K	348.15 K
x1 = 0.05	127 ± 10	66.6 ± 2.1	24.4 ± 0.8	13 ± 0.5
x1 = 0.1	106 ± 7	56.2 ± 1.9	21.6 ± 0.7	11.6 ± 0.5
x1 = 0.15	93 ± 5	51.2 ± 1.3	20.5 ± 0.7	11.4 ± 0.5
x1 = 1	0.56 ± 0.03	0.47 ± 0.03	0.37 ± 0.03	0.3 ± 0.03
